From ChEMBL document CHEMBL2384920, “Ester prodrugs of acyclic nucleoside thiophosphonates compared to phosphonates: synthesis, antiviral activity and decomposition study” (Eur J Med Chem, 2013)
Calls of active or inactive are those of the source. No cut-off for these calls is given here.

Assays:
[1] = Cytotoxicity against human HEL cells assessed as effect on cell morphology; format: cell-based
Human alphaherpesvirus 1 [2] = experiment: Antiviral activity against Human simplex virus 1 KOS infected in human HEL cells assessed as reduction of virus-induced cytopathicity measured at day 3 by microscopic analysis; format: functional, organism-based; conditions: Human alphaherpesvirus 1, KOS, 72 h
Human alphaherpesvirus 1 [3] = experiment: Antiviral activity against thymidine kinase-deficient Human simplex virus 1 KOS infected in human HEL cells assessed as reduction of virus-induced cytopathicity measured at day 3 by microscopic analysis; format: functional, organism-based; conditions: Human alphaherpesvirus 1, KOS, 72 h
Vaccinia virus [4] = experiment: Antiviral activity against Vaccinia virus infected in human HEL cells assessed as reduction of virus-induced cytopathicity measured at day 3 by microscopic analysis; format: functional, organism-based; conditions: Orthopoxvirus vaccinia, 72 h
Human alphaherpesvirus 2 = experiment: Antiviral activity against Human simplex virus 2 G infected in human HEL cells assessed as reduction of virus-induced cytopathicity measured at day 3 by microscopic analysis; format: functional, organism-based; conditions: Human alphaherpesvirus 2, strain G, 72 h
[5] = Cytotoxicity against mock-infected human CEM cells assessed as growth inhibition; format: cell-based, CCRF-CEM
[6] = system: Human immunodeficiency virus 2; experiment: Antiviral activity against wild type HIV-2 ROD infected in human CEM cells assessed as inhibition of syncytia formation after 4 days by microscopic analysis; format: functional, organism-based; conditions: Human immunodeficiency virus 2, ISOLATE ROD, CCRF-CEM, 96 h
Hepatitis B virus = experiment: Antiviral activity against wild type HBV transfected in human HuH7 cells assessed as reduction of viral DNA level after 7 days by qPCR analysis; format: functional, organism-based; conditions: Huh-7, 168 h
[7] = Prodrug conversion assessed as snake venome phosphodiesterase-mediated thiophosphonate monoester formation at 5 mM; format: ADME; conditions: crotalus adamanteus, 5000 µM
[8] = system: Human immunodeficiency virus 1; experiment: Antiviral activity against wild type HIV-1 3B infected in human CEM cells assessed as inhibition of syncytia formation after 4 days by microscopic analysis; format: functional, organism-based; conditions: Human immunodeficiency virus 1, 3B, CCRF-CEM, 96 h
[9] = Cytotoxicity against human HuH7 cells assessed as reduction of cell density; format: cell-based, Huh-7
[10] = Prodrug conversion assessed as snake venome phosphodiesterase-mediated PMPA formation at 5 mM; format: ADME; conditions: crotalus adamanteus, 5000 µM
[11] = Half life of the compound in presence of carboxyesterase; format: physicochemical
[12] = Prodrug conversion assessed as snake venome phosphodiesterase-mediated (R)-9-[2-(Thiophosphonomethoxy)propyl]adenine disodium salt formation at 5 mM; format: ADME; conditions: crotalus adamanteus, 5000 µM
[13] = Prodrug conversion assessed as snake venome phosphodiesterase-mediated PMEA formation at 5 mM; format: ADME; conditions: crotalus adamanteus, 5000 µM
Vaccinia virus [14] = experiment: Antiviral activity against Vaccinia virus infected in human HEL cells assessed as reduction of virus-induced cytopathicity at 200 uM measured at day 3 by microscopic analysis; format: functional, organism-based; conditions: Orthopoxvirus vaccinia
[15] = Stability of the compound in RPMI-1640 assessed as half life of first step of hydrolysis; format: physicochemical
[16] = Prodrug conversion assessed as snake venome phosphodiesterase-mediated phosphonate monoester formation at 5 mM; format: ADME; conditions: crotalus adamanteus, 5000 µM
[17] = Stability of the compound in DMEM assessed as half life of first step of hydrolysis; format: physicochemical

SMILES	MCC [1] [µM]	EC50 (Human alphaherpesvirus 1 [2]) [nM]	EC50 (Human alphaherpesvirus 1 [3]) [nM]	EC50 (Vaccinia virus [4]) [nM]	EC50 (Human alphaherpesvirus 2) [nM]	CC50 [5] [nM]	EC50 [6] [nM]	EC50 (Hepatitis B virus) [nM]	EC50 [8] [nM]	CC50 [9] [nM]	also measured
CC(C)(C)C(=O)OCOP(=S)(COCCn1cnc2c(N)ncnc21)OCOC(=O)C(C)(C)C	> 50	3900	3900	29000	3900	2000	≥ 200	1450	≥ 200	> 25000	Drug metabolism [7]: Active
CC(C)OC(=O)OCOP(=S)(CO[C@H](C)Cn1cnc2c(N)ncnc21)OCOC(=O)OC(C)C	> 50	> 50000	> 50000	> 50000	> 50000	> 25000	130	1140	92	> 25000	Drug metabolism [7]: Active
CC(C)OC(=O)OCOP(=O)([O-])CO[C@H](C)Cn1cnc2c(N)ncnc21.[Na+]											Drug metabolism [10]: Active; half-life [11]: > 7 h
CC(C)OC(=O)OCOP([O-])(=S)CO[C@H](C)Cn1cnc2c(N)ncnc21.[Na+] (some centres undefined)											Drug metabolism [12]: Active
CC(C)(C)C(=O)OCOP(=O)([O-])COCCn1cnc2c(N)ncnc21.[Na+]											Drug metabolism [13]: Active
Nc1ncnc2c1ncn2CCOCP(=O)(O)O											Activity (Vaccinia virus [14]): inactive
Nc1ncnc2c1ncn2CCOCP(=O)(O)S (centres undefined)											Activity (Vaccinia virus [14]): Active
Nc1nc2c(ncn2COCCO)c(=O)[nH]1 [ACYCLOVIR]	> 250		29000	> 250000							
CC(C)(C)C(=O)OCOP(=O)(COCCn1cnc2c(N)ncnc21)OCOC(=O)C(C)(C)C [ADEFOVIR DIPIVOXIL]	> 50	200	200	4000	200	1600	62	830	45	> 25000	half-life [15]: 1 h; Drug metabolism [16]: Active; half-life [11]: > 7 h; half-life [17]: 1 h
Nc1ccn(C[C@@H](CO)OCP(=O)(O)O)c(=O)n1 [CIDOFOVIR]	> 250										
CC(C)OC(=O)OCOP(=O)(CO[C@H](C)Cn1cnc2c(N)ncnc21)OCOC(=O)OC(C)C [TENOFOVIR DISOPROXIL]	> 50	5800	9600	> 50000	5800	> 25000	13	880	16	> 25000	half-life [15]: 1 h; Drug metabolism [16]: Active; half-life [17]: 1 h
